The text below walks through data of US20230348437A1, “COMPOUNDS, COMPOSITIONS AND METHODS” (Denali Therapeutics Inc., priority 2020, published 2023).

pIC50: −log10 of the molar value. Like-named read-outs stand apart in the source and are kept apart here. Some results are limits rather than exact numbers.

The test system of assay [1] is NLRP3 (IL-1β release from THP-1 cells). As to the kind of experiment: IL-1β detection in IFN-γ differentiated THP-1 cells, LPS induction and ATP, 96 well format. Conditions: Homo sapiens, IFN-γ 25 ng/mL, LPS 50 ng/mL, ATP 5 mM, IL-1β ELISA, read-out: Activity (IC50 class). It is filed as cell-based. As for the experimental part:
(§1) Compounds as provided herein were tested in the following assay. Cell culture medium employed contained RPMI 1640 medium (89%), FBS (10%), Pen/Strep (1%), and 2-mercaptoethanol (0.05 mM). Freezing medium was made up of 90% FBS and 10% DMSO. THP-1 cells were removed from the liquid nitrogen and placed into a 37° C. water bath to thaw, until signs of ice dissipated. The cells were then added to 9 mL of warm cell culture medium and centrifuged for 5 minutes at 1000 rpm. The supernatant was discarded, and the cells were resuspended in new cell culture medium. The THP-1 cells were then split and cultured in the cell culture medium, being passaged every 2-3 days (5×10^5 cells/mL passaged every two days, 3×10^5 cells/mL passaged every three days). Cell density was maintained between 5×10^5-1.5×10^6 viable cells/mL.
To freeze, cells were resuspended with fresh freezing medium, adjusting the cell density to between 3×10^6-10×10^6 cells/mL. The cell suspension was partitioned into 1 mL aliquots per vial, and the vials were transferred to a -80° C. freezer. After one day at -80° C., the cell vials were transferred to liquid nitrogen freezer for storage.
PBST solution was prepared by mixing 3600 mL of water, 400 mL of 10X PBS, and 4 mL of Tween 20. IFN-γ solution was reconstituted with 100 µL of water to obtain a 1 mg/mL solution, which was then diluted with 0.1 % BSA to provide a 100 ng/mL solution. The IFN-γ solution was stored at -20° C. LPS was reconstituted with 1 mL of PBS solution to obtain a 1 mg/mL stock solution, which was further diluted to 50 ng/mL with serum-free medium. The LPS solution was stored at 4° C.
The 96 well plates were then incubated at 37° C. under a humidified atmosphere of 5% CO2 for 24 h.
LPS induction: When IFN-γ treatment was completed, the supernatants were discarded by hand. 100 µL of a 1X solution of LPS in serum-free medium (50 ng/mL) was added. The plates were incubated in a 37° C. incubator under a humidified atmosphere of 5% CO2 for 4 h. Sample compounds were dissolved in DMSO and the compound solutions were dispensed to the wells using a Tecan D300e digital dispenser. The final concentration of DMSO for each well was 0.5%. The plates were then incubated at 37° C. under a humidified atmosphere of 5% CO2 for 1 h. 20 µL of a 6X solution of ATP was added (final concentration per well: 5 mM), and the plates incubated at 37° C. under a humidified atmosphere of 5% CO2 for 1 h. The supernatants were then collected and analyzed using an IL-Iβ detection kit. If needed, the test samples could be stored at -20° C. until analyzed.
Compound dilution: Compound solution source plates (20 µL of a 10 mM solution of each compound was delivered to the specified wells and stored in a nitrogen cabinet until tested.
Coat Elisa plate: The captured antibody (mAb Mt175) was diluted in PBS to a concentration of 2 µg/mL, and then used to coat the ELISA plate (SIGMA-P6366) overnight at 4° C.
The antibody coat was discarded and the plate was washed 4 times with PBST. The plate was blocked by adding 25 µL/well of blocking buffer (LiCor-927-40000) with 0.1% Tween 20, then incubated for 1 h at room temperature. The blocking buffer was then discarded and the plate was washed 4 times with PBST.
One hour before test sample addition, the sample plates were allowed to thaw at room temperature, centrifuged at 1000 rpm for 1 minute, and shaken for 30 seconds. 25 µL/well of the test samples were transferred to the ELISA plate, and the plate was incubated for 2 h at room temperature.
The test samples were discarded and the ELISA plate was washed 4 times with PBST. 15 µL/well of mAb7P10-biotin at 0.5 µg/mL (1:1000) in blocking buffer was then added to the ELISA plate and it was incubated for 1 h at room temperature.
The antibody was discarded and the ELISA plate was washed 4 times with PBST. Then 15 µL/well of streptavidin-HRP diluted 1:1000 in blocking buffer was added to the ELISA plate and it was allowed to incubate for 1 h at room temperature.

Assay [2] concerns NLRP3 (IL-1β secretion from THP-1 cells). As to the kind of experiment: IL-1β secretion assay in 384-well plates, PMA differentiated THP-1 cells, LPS and nigericin stimulation. Conditions: Homo sapiens; for pIC50: THP-1 cells, PMA 5 ng/mL, LPS 25 ng/mL, nigericin, IL-1β ELISA, 384-well, read-out: Activity. The format is cell-based. Here is the method:
as §1, with “Cell culture medium employed contained RPMI 1640 medium (89%), FBS (10%), Pen/Strep (1%), and 2-mercaptoethanol (0.05 mM).” left out
PMA was dissolved in DMSO to make a stock solution at 5 mg/mL and stored in 10 µl aliquots at -20° C. for single use. PMA is added to normal growth medium. LPS was diluted with 1 mL of water solution to provide a 1 mg/mL stock solution and stored in 15 µl aliquots at -20° C. for single use. Nigericin is diluted in ice cold 100% ethanol to 5 mg/mL (6.7 mM) and stored in 75 µL aliquots at -20° C. for single use. […] The two control conditions used to qualify and normalize test compound dose-response curves were as follows: High Control = 25 ng/mL LPS, 5 µM Nigericin, 0.5% DMSO, Low Control = 25 ng/mL, LPS, 0.5% DMSO.
THP-1 cells were diluted to provide a suspension at a concentration of 1.0×10^6 cells/mL with the total volume of suspension required to enable the desired number of assay plates. The growth media was supplemented with PMA (5 ng/mL final concentration) and the cells were incubated at 37° C. under a humidified atmosphere of 5% CO2 for 40 h.
All media was carefully aspirated from each culture flask. The cells were washed carefully with 1x DPBS. The cells were then briefly digested with trypsin LE for 5 minutes at 23° C. and immediately resuspended in cell growth media. After resuspension, the cells were centrifuged at 1000 rpm for 3 minutes and the supernatant was discarded. The cells were resuspended in DPBS and once again centrifuged at 1000 rpm for 5 minutes. The supernatant was discarded and the cell pellet was resuspended in serum-free media supplemented with LPS (25 ng/mL final concentration) to enable the distribution of 30 K THP-1 cells within 45 µL of media into each well of 384-well PDL-coated plates. The 384-well plates were then incubated at 37° C. under a humidified atmosphere of 5% CO2 for 2 h. Following this period, test compounds were dispensed by Tecan across the desired concentration range with all wells normalized to a final 0.5 % DMSO concentration. The plates were then incubated at 37° C. under a humidified atmosphere of 5% CO2 for 1 h. Following this period, 5 µL of the […] nigericin stock solution was added to each of the appropriate wells and plates were centrifuged at 1000 rpm for 30 seconds. The plates were the immediately reintroduced to the incubator at 37° C. under a humidified atmosphere of 5% CO2 for 2 h. After this time, 35 µL/well of supernatant was collected and transferred into v-bottom plate and centrifuged at 1000 rpm for 1 minute. These supernatant aliquots were analyzed using an IL-Iβ detection kit as described below. If needed, the test samples could be snap frozen and stored at -80° C. until analyzed.
To prepare each ELISA plate, capture antibody (mAb Mt175) was diluted with PBS to a final concentration of 2 µg/mL and then 20 µL of this solution was added to each well of the ELISA plate. Each plate was allowed to incubate overnight at 4° C. The next day, the capture antibody solution was removed and discarded. […] Each ELISA plate was then allowed to incubate for 1 hour at 23° C. After this time, the blocking buffer was removed and discarded. Each ELISA plate was washed 4 times with PBST. During this time, the v-bottomed plates containing the supernatant aliquots from the assay run were centrifuged at 300 g for 5 minutes before transferring 15 µL/well of the supernatant sample to each ELISA plate. […]
A general note: ELISA stands for enzyme-linked immunosorbent assay.

Turning to `CC(C)c1nn(CC(=O)N[C@H]2C[C@@](C)(O)C2)c(=O)cc1-c1ccccc1` [Example 1, N-(cis-3-hydroxy-3-methylcyclobutyl)-2-(3-isopropyl-6-oxo-4-phenylpyridazin-1(6H)-yl)acetamide], the pIC50 in assay [1] was greater than 5.00; in assay [2], 5.48.
On to `CC(C)c1nn(CC(=O)N[C@H]2C[C@@](C)(O)C2)c(=O)cc1-c1cccc(Cl)c1` [Example 2, 2-(4-(3-chlorophenyl)-3-isopropyl-6-oxopyridazin-1(6H)-yl)-N-(cis-3-hydroxy-3-methylcyclobutyl)acetamide], for which the pIC50 in assay [1] was greater than 5.00; in assay [2], 5.83.
For `CCc1nn(CC(=O)N[C@H]2C[C@@](C)(O)C2)c(=O)cc1-c1ccccc1` [Example 3, 2-(3-Ethyl-6-oxo-4-phenylpyridazin-1(6H)-yl)-N-(cis-3-hydroxy-3-methylcyclobutyl)acetamide], the pIC50 in assay [1] is greater than 5.00; in assay [2] it was 5.17.
`CC(C)c1nn(CC(=O)N[C@H]2C[C@@](C)(O)C2)c(=O)cc1-c1ccccc1Cl` [Example 4, 2-(4-(2-Chlorophenyl)-3-isopropyl-6-oxopyridazin-1(6H)-yl)-N-(cis-3-hydroxy-3-methylcyclobutyl)acetamide]: the pIC50 in assay [1] was greater than 5.00; in assay [2], 5.23.
With `CC(C)c1nn(CC(=O)Nc2ncncc2F)c(=O)cc1-c1cccc(Cl)c1` [Example 6, 2-(4-(3-chlorophenyl)-3-isopropyl-6-oxopyridazin-1(6H)-yl)-N-(5-fluoropyrimidin-4-yl)acetamide], the pIC50 was greater than 5.00 in assay [1] and 6.27 in assay [2].
Turning to `COc1cccc(-c2cc(=O)n(CC(=O)N[C@H]3C[C@@](C)(O)C3)nc2C(C)C)c1` [Example 7], the pIC50 in assay [1] was greater than 5.00; in assay [2] it was 5.15.
The matching figures for `CC(C)c1nn(CC(=O)N[C@H]2C[C@@](C)(O)C2)c(=O)cc1-c1cccc(C#N)c1` [Example 8, 2-(4-(3-cyanophenyl)-3-isopropyl-6-oxopyridazin-1(6H)-yl)-N-(cis-3-hydroxy-3-methylcyclobutyl)acetamide]: 4.82 to 5.00 and 4.61.
With `O=C(Cn1nc(CC(F)(F)F)c(-c2cc(F)cc(F)c2)cc1=O)Nc1ncncc1F` [Example 50, 2-[4-(3,5-difluorophenyl)-6-oxo-3-(2,2,2-trifluoroethyl)pyridazin-1-yl]-N-(5-fluoropyrimidin-4-yl)acetamide], the pIC50 in assay [2] is 5.79.
Still for that read-out and setting: under `CC(C)c1nn(C2(C(=O)Nc3ncccn3)CC2)c(=O)cc1-c1cc(F)cc(F)c1` [Example 51, 1-[4-(3,5-difluorophenyl)-3-isopropyl-6-oxo-pyridazin-1-yl]-N-pyrimidin-2-yl-cyclopropanecarboxamide] stands 5.94; under `CCc1nn(CC(=O)Nc2ncncc2F)c(=O)c(C)c1-c1cccc(F)c1` [Example 52, 2-[3-ethyl-4-(3-fluorophenyl)-5-methyl-6-oxopyridazin-1-yl]-N-(5-fluoropyrimidin-4-yl)acetamide], 5.36; under `O=C(Cn1nc(C(F)F)c(-c2cc(F)cc(F)c2)cc1=O)Nc1ncc(F)cn1` [Example 53, 2-[3-(difluoromethyl)-4-(3,5-difluorophenyl)-6-oxopyridazin-1-yl]-N-(5-fluoropyrimidin-2-yl)acetamide], 5.56.
On the same count and under the same terms, under `CC(C)c1nn(CC(=O)Nc2ncc(F)cn2)c(=O)cc1-c1cncc(F)c1` [Example 54, 2-[4-(5-fluoropyridin-3-yl)-6-oxo-3-propan-2-ylpyridazin-1-yl]-N-(5-fluoropyrimidin-2-yl)acetamide] stands 5.16.
Still for that read-out and setting: under `CC(CF)c1nn(CC(=O)Nc2ncc(F)cn2)c(=O)cc1-c1cc(F)cc(F)c1` (stereo not shown) [Example 55, 2-[4-(3,5-difluorophenyl)-3-(1-fluoropropan-2-yl)-6-oxopyridazin-1-yl]-N-(5-fluoropyrimidin-2-yl)acetamide] stands 5.97; under `O=C(Cn1nc(C2CCC2)c(-c2cc(F)cc(F)c2)cc1=O)Nc1ncc(F)cn1` [Example 56, 2-[3-cyclobutyl-4-(3,5-difluorophenyl)-6-oxopyridazin-1-yl]-N-(5-fluoropyrimidin-2-yl)acetamide], 6.15.
`COc1nn(CC(=O)Nc2ncc(F)cn2)c(=O)cc1-c1cc(F)cc(F)c1` [Example 57, 2-[4-(3,5-difluorophenyl)-3-methoxy-6-oxopyridazin-1-yl]-N-(5-fluoropyrimidin-2-yl)acetamide]: the IC50 in assay [2] (THP-1, read-out: Activity (µM)) was found to be 1.96 µM.
